34 compounds from patent US20220144841A1, “TRISUBSTITUTED PYRAZOLO [1,5-A] PYRIMIDINE COMPOUNDS AS CDK7 INHIBITORS” (THE TRANSLATIONAL GENOMICS RESEARCH INSTITUTE, priority 2019, published 2022) can be followed below.

Structures can show the parent of a compound that is named as a salt.

For the test, the target named is T1, CDK7/CycH/MAT1 (Homo sapiens, UniProt P50613).
T1 construct: purchased ProQinase 0366-0360-4
T1 sequence (P50613 whole entry): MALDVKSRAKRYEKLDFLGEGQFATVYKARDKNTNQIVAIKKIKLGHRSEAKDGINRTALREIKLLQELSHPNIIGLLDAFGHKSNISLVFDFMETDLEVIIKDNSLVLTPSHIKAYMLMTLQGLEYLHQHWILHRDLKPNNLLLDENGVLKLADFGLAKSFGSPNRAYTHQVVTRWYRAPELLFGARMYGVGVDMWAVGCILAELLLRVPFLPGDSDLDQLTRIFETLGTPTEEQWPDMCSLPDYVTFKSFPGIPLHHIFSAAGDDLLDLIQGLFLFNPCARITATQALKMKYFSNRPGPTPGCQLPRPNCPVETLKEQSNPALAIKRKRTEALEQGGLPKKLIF
T1 sequence (P51946 whole entry partner): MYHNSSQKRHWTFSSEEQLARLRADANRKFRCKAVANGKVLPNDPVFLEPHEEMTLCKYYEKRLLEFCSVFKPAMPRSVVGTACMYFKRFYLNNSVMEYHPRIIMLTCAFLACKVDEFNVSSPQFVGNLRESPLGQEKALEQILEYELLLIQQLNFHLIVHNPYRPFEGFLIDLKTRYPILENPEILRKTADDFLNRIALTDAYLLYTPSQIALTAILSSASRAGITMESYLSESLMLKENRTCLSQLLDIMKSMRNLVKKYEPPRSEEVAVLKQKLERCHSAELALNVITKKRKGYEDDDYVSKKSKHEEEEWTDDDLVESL
T1 sequence (P51948 whole entry partner): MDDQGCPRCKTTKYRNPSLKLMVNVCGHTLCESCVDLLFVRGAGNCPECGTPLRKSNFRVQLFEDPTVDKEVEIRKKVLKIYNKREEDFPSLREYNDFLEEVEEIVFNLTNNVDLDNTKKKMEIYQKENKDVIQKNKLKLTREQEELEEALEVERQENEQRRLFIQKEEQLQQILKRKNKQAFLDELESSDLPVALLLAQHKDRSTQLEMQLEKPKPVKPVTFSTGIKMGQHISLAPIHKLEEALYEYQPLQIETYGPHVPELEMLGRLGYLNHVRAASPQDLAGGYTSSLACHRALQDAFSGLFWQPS
As to the kind of experiment: Kinase ADP-Glo Assay. Format: biochemical. Particulars: ADP-Glo assay (compounds without *), ATP 1 μM, 60 minutes at room temperature. The method, then:
Assay Buffer: 50 mM HEPES, 3 mM MgCl2, 3 mM MnCl2, 1 mM DTT, 3 μM Na3VO4, pH 7.5
Substrate RB: CTF Peptide (ProQinase #: 0040-0000-6)
ADP-Glo™ Assay (Promega #: V9101): ATP: 10 mM, ADP-Glo™ Reagent, Kinase Detection Reagent
384-well white assay plates
A ten point serial dilution of compound was prepared at 5× concentration in assay buffer with the final assay concentrations starting at 30 μM, 10 μM, 3 μM, 1 μM . . . 0 μM. Enzyme, substrate, and ATP were used at 40 ng, 200 ng (or 400 ng)^+ and 1 μM, respectively. The assay plate was set up by mixing the components in a total reaction volume of 10 μL per well. The plate was centrifuged gently for 10 seconds and incubated at room temperature (RT) for 60 minutes in the dark. The ADP-Glo Reagent and kinase detection reagent were added and incubated as recommended. The reaction was quantified by measuring luminescence on the Perkin Elmer Envision plate reader. Data was analyzed using Graphpad Prism 7 software. *With CDK2 enzyme, 400 ng of substrate was used.
Background: ADP-Glo turns the ADP formed in a reaction into a luminescent signal.
On to `O[C@@H]1CNCC[C@H]1COc1cc(Nc2cccc(F)c2)n2ncc(C3CC3)c2n1` (relative stereo) [Compound I-53, trans-4-((3-cyclopropyl-7-((3-fluorophenyl)amino)pyrazolo [1,5-a]pyrimidin-5-yl)oxymethyl)piperidin-3-ol], for which the IC50 was less than 100 nM.

In turn, `Cc1cc(F)cc(Nc2cc(O[C@@H]3CNC[C@@H](O)C3)nc3c(C4CCC4)cnn23)c1` (relative stereo) [Compound I-57, trans-5-((3-cyclobutyl-7-((3-fluoro-5-methylphenyl)amino)pyrazolo [1,5-a]pyrimidin-5-yl)oxy)piperidin-3-ol] came in with an IC50 of less than 100 nM.

`Fc1cccc(Nc2cc(O[C@H]3CCCNC3)nc3c(C4CC4)cnn23)c1` [Compound I-4, (S)-3-cyclopropyl-N-(3-fluorophenyl)-5-((piperidin-3-yl)oxy)pyrazolo[1,5-a]pyrimidin-7-amine] registered an IC50 of less than 100 nM.

Turning to `N[C@H]1CC[C@H](Nc2cc(Nc3cccc(F)c3)n3ncc(C4CC4)c3n2)CC1` [Compound I-6, Trans-N^5-(4-aminocyclohexyl)-3-cyclopropyl-N^7-(3-fluorophenyl)pyrazolo[1,5-a]pyrimidine-5,7-diamine], the IC50 was in the range of 100 to 1000 nM.

Turning to `N[C@H]1CC[C@@H](Nc2cc(Nc3cccc(F)c3)n3ncc(C4CC4)c3n2)CC1` [Compound I-7, Cis-N^5-(4-aminocyclohexyl)-3-cyclopropyl-N^7-(3-fluorophenyl)pyrazolo[1,5-a]pyrimidine-5,7-diamine], the IC50 is 100 to 1000 nM.

Consider `FC(F)(F)c1cccc(Nc2cc(N[C@H]3CCCNC3)nc3c(C4CC4)cnn23)c1` [Compound I-8], for which the IC50 was less than 100 nM.

As for `N#Cc1cccc(Nc2cc(N[C@H]3CCCNC3)nc3c(C4CC4)cnn23)c1` [Compound I-9, (S)-3-((3-cyclopropyl-5-((piperidin-3-yl)amino)pyrazolo[1,5-a]pyrimidin-7-yl)amino)benzonitrile], the IC50 is less than 100 nM.

`FC(F)(F)Cc1cccc(Nc2cc(N[C@H]3CCCNC3)nc3c(C4CC4)cnn23)c1` [Compound I-10] registered an IC50 of 100 to 1000 nM.

For `O[C@@H]1CNCC[C@H]1CNc1cc(Nc2cccc(F)c2)n2ncc(C3CC3)c2n1` [Compound I-11, (3S,4S)-4-(((3-cyclopropyl-7-((3-fluorophenyl)amino)pyrazolo [1,5-a]pyrimidin-5-yl)amino)methyl)piperidin-3-ol], the IC50 was less than 100 nM.

As for `O[C@@H]1CNCC[C@@H]1CNc1cc(Nc2cccc(F)c2)n2ncc(C3CC3)c2n1` [Compound I-12, (3S,4R)-4-((3-cyclopropyl-7-((3-fluorophenyl)amino)pyrazolo [1,5-a]pyrimidin-5-yl)aminomethyl)piperidin-3-ol], the IC50 lay in the range of 100 to 1000 nM.

Take `Fc1cccc(Nc2cc(NC[C@H]3CCCNC3)nc3c(C4CC4)cnn23)c1` [Compound I-13]: the IC50 was greater than 1000 nM.

As to `Fc1cccc(Nc2cc(OC[C@H]3CCCNC3)nc3c(C4CC4)cnn23)c1` [Compound I-14], the IC50 is 100 to 1000 nM.

With `N#Cc1cccc(Nc2cc(NC[C@@H]3CCNC[C@H]3O)nc3c(C4CC4)cnn23)c1` [Compound I-15, (3S,4S)-3-((3-cyclopropyl-5-(((3-hydroxy)piperidin-4-yl)methylamino)pyrazolo[1,5-a]pyrimidin-7-yl)amino)benzonitrile], the IC50 fell in the range of 100 to 1000 nM.

`N#Cc1cc(F)cc(Nc2cc(NC[C@@H]3CCNC[C@H]3O)nc3c(C4CC4)cnn23)c1` [Compound I-16, (3S,4S)-3-((3-cyclopropyl-5-(((3-hydroxy)piperidin-4-yl)methylamino)pyrazolo[1,5-a]pyrimidin-7-yl)amino)-5-fluorobenzonitrile trifluoroacetate salt] returned an IC50 greater than 1000 nM.

Compound `O[C@@H]1CNCC[C@H]1CNc1cc(Nc2cccc(F)c2)n2ncc(C3CC3)c2n1` [Compound I-17] came in with an IC50 of 100 to 1000 nM.

In turn, `Clc1cccc(Nc2cc(N[C@H]3CCCNC3)nc3c(C4CC4)cnn23)c1` [Compound I-18] registered an IC50 of less than 100 nM.

Compound `O[C@H]1CCNC[C@@H]1Nc1cc(Nc2cccc(F)c2)n2ncc(C3CC3)c2n1` [Compound I-21, (3S,4S)-3-((3-cyclopropyl-7-((3-fluorophenyl)amino)pyrazolo [1,5-a]pyrimidin-5-yl)amino)piperidin-4-ol hydrochloride] had an IC50 greater than 1000 nM.

`O[C@@H]1CNC[C@@H](Nc2cc(Nc3cccc(F)c3)n3ncc(C4CC4)c3n2)C1` [Compound I-22, hydrochloride] had an IC50 greater than 1000 nM.

For the compound `N#Cc1cnn2c(NCc3cccc(F)c3)cc(N[C@H]3CCCNC3)nc12` [Compound I-29, (S)-7-((3-fluorobenzyl)amino)-5-((piperidin-3-yl)amino)pyrazolo[1,5-a]pyrimidine-3-carbonitrile], the IC50 is 100 to 1000 nM.

The compound `Cc1cccc(CNc2cc(N[C@H]3CCCNC3)nc3c(C#N)cnn23)c1` [Compound I-30, (S)-7-((3-methylbenzyl)amino)-5-((piperidin-3-yl)amino)pyrazolo[1,5-a]pyrimidine-3-carbonitrile] displayed an IC50 of 100 to 1000 nM.

Turning to `O[C@H]1CNCC[C@@H]1CNc1cc(Nc2cccc(F)c2)n2ncc(C3CC3)c2n1` [Compound I-45, (3R,4R)-4-((3-cyclopropyl-7-((3-fluorophenyl)amino)pyrazolo [1,5-a]pyrimidin-5-yl)aminomethyl)piperidin-3-ol], the IC50 is less than 100 nM.

Compound `O[C@H]1CNCC[C@@H]1CNc1cc(Nc2cc(F)cc(F)c2)n2ncc(C3CC3)c2n1` [Compound I-46, (3R,4R)-4-((3-cyclopropyl-7-((3,5-difluorophenyl)amino)pyrazolo[1,5-a]pyrimidin-5-yl)aminomethyl)piperidin-3-ol] had an IC50 of 100 to 1000 nM.

In turn, `O[C@@H]1CNCC[C@H]1CNc1cc(Nc2cc(F)cc(F)c2)n2ncc(C3CC3)c2n1` [Compound I-47, (3S,4S)-4-((3-cyclopropyl-7-((3,5-difluorophenyl)amino)pyrazolo[1,5-a]pyrimidin-5-yl)aminomethyl)piperidin-3-ol] yielded an IC50 of 100 to 1000 nM.

Regarding `N#Cc1cccc(Nc2cc(NC[C@H]3CCNC[C@@H]3O)nc3c(C4CC4)cnn23)c1` [Compound I-48, (3R,4R)-3-(((3-cyclopropyl-5-(3-hydroxypiperidin-4-yl)methylamino)pyrazolo[1,5-a]pyrimidin-7-yl)amino)benzonitrile], the IC50 was less than 100 nM.

Consider `Cc1cc(F)cc(Nc2cc(NC[C@H]3CCNC[C@@H]3O)nc3c(C4CC4)cnn23)c1` [Compound I-49, (3R,4R)-4-((3-cyclopropyl-7-((3-fluoro-5-methylphenyl)amino)pyrazolo [1,5-a]pyrimidin-5-yl)aminomethyl)piperidin-3-ol], for which the IC50 was less than 100 nM.

Turning to `O[C@H]1CNCC[C@@H]1CNc1cc(Nc2cccc(F)c2)n2ncc(C3CCC3)c2n1` [Compound I-50], the IC50 is less than 100 nM.

`CS(=O)(=O)c1cccc(Nc2cc(NC[C@H]3CCNC[C@@H]3O)nc3c(C4CC4)cnn23)c1` [Compound I-51, (3R,4R)-((3-cyclopropyl-7-((3-methylsulfonylphenyl)amino)pyrazolo[1,5-a]pyrimidin-5-yl)aminomethyl)piperidin-3-ol]: the IC50 was less than 100 nM.

In turn, `Cc1cc(F)cc(Nc2cc(NC[C@H]3CCNC[C@@H]3O)nc3c(C4CCC4)cnn23)c1` [Compound I-52, (3R,4R)-((3-cyclobutyl-7-((3-fluoro-5-methylphenyl)amino)pyrazolo [1,5-a]pyrimidin-5-yl)aminomethyl)piperidin-3-ol] gave an IC50 of less than 100 nM.

In turn, `Cc1cc(C#N)cc(Nc2cc(NC[C@H]3CCNC[C@@H]3O)nc3c(C4CC4)cnn23)c1` [Compound I-54, (3R,4R)-3-((3-cyclopropyl-5-((3-hydroxypiperidin-4-yl)methylamino)pyrazolo[1,5-a]pyrimidin-7-yl)amino)-5-methylbenzonitrile] gave an IC50 of less than 100 nM.

Take `N#Cc1cc(F)cc(Nc2cc(NC[C@H]3CCNC[C@@H]3O)nc3c(C4CCC4)cnn23)c1` [Compound I-55, (3R,4R)-3-((3-cyclobutyl-5-((3-hydroxypiperidin-4-yl)methylamino)pyrazolo[1,5-a]pyrimidin-7-yl)amino)-5-fluorobenzonitrile]: the IC50 was less than 100 nM.

`Cc1cc(F)cc(Nc2cc(N[C@@H]3CNC[C@@H](O)C3)nc3c(C4CCC4)cnn23)c1` [Compound I-56, (3S,5S)-5-((3-cyclobutyl-7-((3-fluoro-5-methylphenyl)amino)pyrazolo [1,5-a]pyrimidin-5-yl)amino)piperidin-3-ol] came in with a concentration for half-maximal inhibition (IC50) of 100 to 1000 nM.

`Cc1cc(F)cc(Nc2cc(O[C@H]3CCCNC3)nc3c(C4CCC4)cnn23)c1` [Compound I-58, (S)-3-cyclobutyl-N-(3-fluoro-5-methylphenyl)-5-((piperidin-3-yl)oxy)pyrazolo[1,5-a]pyrimidin-7-amine] returned an IC50 of less than 100 nM.

In turn, `Cc1cc(F)cc(Nc2cc(NC[C@H]3CCCNC3)nc3c(C4CCC4)cnn23)c1` [Compound I-59, (S)-3-cyclobutyl-N^7-(3-fluoro-5-methylphenyl)-N^5-((piperidin-3-yl)methyl)pyrazolo[1,5-a]pyrimidine-5,7-diamine] showed an IC50 greater than 1000 nM.

Compound `N#Cc1cc(F)cc(Nc2cc(OC[C@H]3CCCNC3)nc3c(C4CCC4)cnn23)c1` [Compound I-60, (S)-3-((3-cyclobutyl-5-((piperidin-3-yl)methoxy)pyrazolo[1,5-a]pyrimidin-7-yl)amino)-5-fluorobenzonitrile] gave a 50% inhibitory concentration (IC50) greater than 1000 nM.

A word on the IC50: it is the concentration needed to halve the response being measured.
